Where only a bound is given, the exact number is not on record here.

In patent US20230019491A1, “PYRIMIDINE TBK/IKKe INHIBITOR COMPOUNDS AND USES THEREOF” (Merck Patent GmbH, priority 2017, published 2023) one finds IC50 data, which are given here for 1 compound.

Assay [1] addresses T1, IKKε (Homo sapiens, UniProt Q14164).
T1 sequence (Q14164 1-716): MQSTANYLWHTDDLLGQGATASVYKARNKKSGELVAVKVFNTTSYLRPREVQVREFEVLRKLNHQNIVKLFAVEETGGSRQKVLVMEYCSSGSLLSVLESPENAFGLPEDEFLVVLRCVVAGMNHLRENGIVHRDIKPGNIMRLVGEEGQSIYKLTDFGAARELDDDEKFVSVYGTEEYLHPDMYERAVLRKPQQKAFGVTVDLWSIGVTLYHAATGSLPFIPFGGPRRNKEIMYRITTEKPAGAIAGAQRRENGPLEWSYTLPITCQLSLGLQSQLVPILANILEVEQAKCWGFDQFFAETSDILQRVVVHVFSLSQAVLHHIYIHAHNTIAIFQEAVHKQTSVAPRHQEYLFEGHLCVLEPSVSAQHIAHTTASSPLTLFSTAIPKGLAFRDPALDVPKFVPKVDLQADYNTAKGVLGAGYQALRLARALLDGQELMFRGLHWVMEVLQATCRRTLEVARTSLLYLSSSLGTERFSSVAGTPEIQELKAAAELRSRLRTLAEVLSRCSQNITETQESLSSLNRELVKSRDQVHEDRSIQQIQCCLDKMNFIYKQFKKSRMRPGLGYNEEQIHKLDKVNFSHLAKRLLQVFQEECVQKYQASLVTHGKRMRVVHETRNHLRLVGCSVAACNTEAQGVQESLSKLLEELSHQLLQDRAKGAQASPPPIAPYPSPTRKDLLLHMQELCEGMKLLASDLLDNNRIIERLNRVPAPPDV
The experiment in a line: IKKε biochemical assay. Particulars: 10 point 1:4 dose response, 30 uM top concentration, 90 min at 25° C., LabChip EZ Reader II; read-out: IKKε_IC50. An outline of the steps:
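Compounds in 1% DMSO final were incubated with IKKε enzyme and substrate at 25° C. for 90 min, then stopped. Substrate and product peaks were resolved by LabChip EZ Reader II mobility-shift read-out. Staurosporine at 10 uM final served as the full-inhibition control.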

The target of assay [2] is T2, TBK1 (Homo sapiens, UniProt Q9UHD2).
T2 sequence (Q9UHD2 1-729): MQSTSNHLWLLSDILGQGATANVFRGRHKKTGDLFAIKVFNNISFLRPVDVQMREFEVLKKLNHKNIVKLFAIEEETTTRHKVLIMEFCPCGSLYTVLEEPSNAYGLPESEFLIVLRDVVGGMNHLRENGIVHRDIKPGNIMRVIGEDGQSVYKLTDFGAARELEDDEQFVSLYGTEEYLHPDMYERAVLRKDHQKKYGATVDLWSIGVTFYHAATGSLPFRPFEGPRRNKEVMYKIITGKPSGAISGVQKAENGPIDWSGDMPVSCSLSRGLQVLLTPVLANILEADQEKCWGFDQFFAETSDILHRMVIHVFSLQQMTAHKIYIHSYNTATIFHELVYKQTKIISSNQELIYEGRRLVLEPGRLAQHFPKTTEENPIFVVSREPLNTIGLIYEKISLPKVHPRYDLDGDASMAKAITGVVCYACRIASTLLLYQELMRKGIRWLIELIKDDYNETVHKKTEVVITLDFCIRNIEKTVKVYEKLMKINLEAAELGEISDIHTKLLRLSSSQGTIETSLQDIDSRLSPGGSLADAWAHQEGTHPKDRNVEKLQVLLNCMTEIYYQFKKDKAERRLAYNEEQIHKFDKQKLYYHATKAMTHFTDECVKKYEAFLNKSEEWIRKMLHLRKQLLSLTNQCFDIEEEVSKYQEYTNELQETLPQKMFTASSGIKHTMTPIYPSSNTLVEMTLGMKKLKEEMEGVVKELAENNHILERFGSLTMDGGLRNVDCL
The experiment in a line: TBK biochemical assay. Particulars: 10 point 1:4 dose response, 30 uM top concentration, 90 min at 25° C., LabChip EZ Reader II; read-out: TBK1_IC50. An outline of the steps:
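Substrate and product were separated and quantified by microfluidic mobility-shift read (LabChip). 10 uM staurosporine served as the full-inhibition control, and the reference compound was tested from 1 uM final.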

As to `COc1nc(Nc2nccc(-c3ccc(OC4CCN(C(=O)C5(O)CC5)CC4(F)F)c(C#N)c3)n2)ccc1C1CCN(C2COC2)CC1` (centres unmarked) [Example 237, 2-[3,3-Difluoro-1-(1-hydroxy-cyclopropanecarbonyl)-piperidin-4-yloxy]-5-[2-(2-methoxy-1′-oxetan-3-yl-1′,2′,3′,4′,5′,6′-hexahydro-[3,4′]bipyridinyl-6-ylamino)-pyrimidin-4-yl]-benzonitrile], the IC50 in assay [1] and in assay [2] was < 100 nM in each case.
